From patent US9212151B2, “Heterocyclic compounds useful for kinase inhibition” (Amitech Therapeutic Solutions, Inc., priority 2010, dated 2015)

Test: MTT cell viability assay, compounds at 5, 1 and 0.2 μM, 48 hours
Assay type: cell-based
Details: human, A549 tumor cells
How it was run: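 A549 cells were seeded at 2500/well in DMEM + 10% FBS, grown overnight, then exposed to compound for 48 h. Viability was read by MTT (5 mg/ml, 4 h), with formazan dissolved in DMSO and absorbance measured at 560/570 nm to give survival rate.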

Row | SMILES | viability at 48 h, 0.2 µM (0.2 μM) | viability at 48 h, 1 µM (1 μM) | viability at 48 h, 5 µM (5 μM) | viability at 48 h, 0.2 µM (0.2 μM compound) | viability at 48 h, 1 µM (1 μM compound) | viability at 48 h, 5 µM (5 μM compound)
1 | CSc1nc(N)cc(Oc2ccc(-c3nnc(Nc4cccc(C(=O)O)c4)[nH]3)cc2)n1 [Compound 153] | > 70% | > 70% | > 70% | – | – | –
2 | Nc1nccc(Oc2cccc(-c3nnc(Nc4cccc(C(F)(F)F)c4)[nH]3)c2)n1 [Compound 15] | > 70% | > 70% | > 70% | – | – | –
3 | Nc1cc(Oc2cccc(-c3nnc(Nc4cccc(C(F)(F)F)c4)o3)c2)nc(N)n1 [Compound 35] | > 70% | > 70% | > 70% | – | – | –
4 | NS(=O)(=O)c1cnccc1Oc1ccc(-c2nnc(Nc3cccc(C(F)(F)F)c3)o2)cc1 [Compound 31] | > 70% | > 70% | > 70% | – | – | –
5 | COc1ccc2c(Oc3ccc(-c4nnc(Nc5cccc(C(F)(F)F)c5)[nH]4)cc3)ccnc2c1 [Compound 11] | > 70% | > 70% | 50 to 70% | – | – | –
6 | COC(=O)c1cccc(Nc2nnc(-c3ccc(Oc4cc(N)nc(SC)n4)cc3)[nH]2)c1 [Compound 138] | > 70% | > 70% | < 50% | – | – | –
7 | Nc1cc(Oc2ccc(-c3nnc(Nc4cccc(C(F)(F)F)c4)[nH]3)cc2)nc(SCCO)n1 [Compound 115] | > 70% | > 70% | > 70% | – | – | –
8 | COc1nc(N)cc(Oc2cccc(-c3nnc(Nc4cccc(C(F)(F)F)c4)[nH]3)c2)n1 [Compound 89] | > 70% | > 70% | > 70% | – | – | –
9 | CSc1nc(N)cc(Oc2ccc(-c3nnc(Nc4cc(C(C)(C)C)n[nH]4)[nH]3)cc2)n1 [Compound 132] | > 70% | > 70% | < 50% | – | – | –
10 | CSc1nc(N)cc(Oc2ccc(-c3nnc(Nc4cccc(C(F)(F)F)c4)[nH]3)cc2Cl)n1 [Compound 104] | > 70% | > 70% | < 50% | – | – | –
11 | CSc1nc(N)cc(Oc2cccc(-c3nnc(Nc4cccc(C(F)(F)F)c4)[nH]3)c2)n1 [Compound 14] | 50 to 70% | 50 to 70% | 50 to 70% | – | – | –
12 | CCOc1cc(Oc2cccc(-c3nnc(Nc4cccc(C(F)(F)F)c4)[nH]3)c2)nc(N)n1 [Compound 57] | > 70% | > 70% | > 70% | – | – | –
13 | CC(=O)NCCSc1nc(N)cc(Oc2ccc(-c3nnc(Nc4cccc(C(F)(F)F)c4)[nH]3)cc2)n1 [Compound 114] | > 70% | > 70% | > 70% | – | – | –
14 | CSc1nc(N)cc(Oc2ccc(-c3nnc(Nc4cc(C(F)(F)F)cc(C(F)(F)F)c4)[nH]3)cc2)n1 [Compound 120] | > 70% | > 70% | > 70% | – | – | –
15 | FC(F)(F)c1cccc(Nc2nnc(-c3ccc(Oc4ccnc5[nH]ccc45)cc3)[nH]2)c1 [Compound 68] | > 70% | 50 to 70% | < 50% | – | – | –
16 | CSc1nc(N)cc(Oc2ccc(-c3nnc(Nc4ccc(C#N)cc4)[nH]3)cc2)n1 [Compound 127] | > 70% | > 70% | 50 to 70% | – | – | –
17 | Nc1nccc(Oc2ccc(-c3nnc(Nc4cccc(C(F)(F)F)c4)[nH]3)cc2)n1 [Compound 1] | > 70% | 50 to 70% | 50 to 70% | – | – | –
18 | COc1ccc2c(Oc3ccc(-c4nnc(Nc5cccc(C(F)(F)F)c5)o4)cc3)ccnc2c1 [Compound 33] | > 70% | > 70% | > 70% | – | – | –
19 | CSc1nc(N)cc(Oc2ccc(-c3nnc(Nc4cccc(C)c4)[nH]3)cc2)n1 [Compound 65] | > 70% | > 70% | 50 to 70% | – | – | –
20 | NS(=O)(=O)c1cnccc1Oc1cccc(-c2nnc(Nc3cccc(C(F)(F)F)c3)[nH]2)c1 [Compound 19] | > 70% | > 70% | > 70% | – | – | –
21 | [2H]C([2H])([2H])Oc1cc(Oc2ccc(-c3nnc(Nc4cccc(C(F)(F)F)c4)[nH]3)cc2)nc(N)n1 [Compound 142] | > 70% | > 70% | > 70% | – | – | –
22 | CSc1nc(N)cc(Oc2ccc(-c3nnc(Nc4cccc(OC(C)C)c4)[nH]3)cc2)n1 [Compound 134] | > 70% | > 70% | < 50% | – | – | –
23 | Cc1nccc(Oc2ccc(-c3nnc(Nc4cccc(C(F)(F)F)c4)[nH]3)cc2)n1 [Compound 51] | > 70% | 50 to 70% | < 50% | – | – | –
24 | CSc1nc(N)cc(Oc2ccc(-c3nnc(Nc4cccc(C(F)(F)F)c4)[nH]3)cc2C)n1 [Compound 102] | > 70% | > 70% | > 70% | – | – | –

Row | SMILES | viability at 48 h, 0.2 µM (0.2 μM) | viability at 48 h, 1 µM (1 μM) | viability at 48 h, 5 µM (5 μM) | viability at 48 h, 0.2 µM (0.2 μM compound) | viability at 48 h, 1 µM (1 μM compound) | viability at 48 h, 5 µM (5 μM compound)
25 | Nc1cc(Oc2cccc(-c3nnc(Nc4cccc(C(F)(F)F)c4)[nH]3)c2)c2ccccc2n1 [Compound 86] | > 70% | > 70% | > 70% | – | – | –
26 | Nc1cc(Oc2ccc(-c3nnc(Nc4cccc(C(F)(F)F)c4)o3)cc2)ccn1 [Compound 59] | > 70% | > 70% | > 70% | – | – | –
27 | FC(F)(F)c1cccc(Nc2nnc(-c3cccc(Oc4cncnc4)c3)[nH]2)c1 [Compound 101] | > 70% | > 70% | > 70% | – | – | –
28 | Nc1cc(Oc2cccc(-c3nnc(Nc4cccc(C(F)(F)F)c4)[nH]3)c2)nc(N)n1 [Compound 13] | > 70% | > 70% | 50 to 70% | – | – | –
29 | CSc1nc(N)cc(Oc2c(C)cc(-c3nnc(Nc4cccc(C(F)(F)F)c4)[nH]3)cc2C)n1 [Compound 110] | > 70% | > 70% | > 70% | – | – | –
30 | COc1nc(N)cc(Oc2ccc(-c3nnc(Nc4cccc(C(F)(F)F)c4)[nH]3)cc2)n1 [Compound 72] | > 70% | > 70% | < 50% | – | – | –
31 | CSc1nc(N)cc(Oc2ccc(-c3nnc(Nc4ccc(C)c(C)c4)[nH]3)cc2)n1 [Compound 125] | > 70% | > 70% | < 50% | – | – | –
32 | CCOc1cc(Oc2ccc(-c3nnc(Nc4cccc(C(F)(F)F)c4)[nH]3)cc2)nc(N)n1 [Compound 52] | > 70% | > 70% | > 70% | – | – | –
33 | Cc1cc(Oc2cccc(-c3nnc(Nc4cccc(C(F)(F)F)c4)[nH]3)c2)nc(N)n1 [Compound 54] | > 70% | < 50% | < 50% | – | – | –
34 | CNc1cc(Oc2ccc(-c3nnc(Nc4cccc(C(F)(F)F)c4)[nH]3)cc2)nc(SC)n1 [Compound 118] | > 70% | > 70% | > 70% | – | – | –
35 | CSc1nc(N)cc(Oc2ccc(-c3nnc(Nc4cc(C(C)(C)C)on4)[nH]3)cc2)n1 [Compound 129] | > 70% | > 70% | > 70% | – | – | –
36 | FC(F)(F)c1cccc(Nc2nnc(-c3ccc(Oc4ncnc5[nH]ccc45)cc3)s2)c1 [Compound 45] | > 70% | 50 to 70% | < 50% | – | – | –
37 | Nc1cc(Oc2ccc(-c3nnc(Nc4cccc(C(F)(F)F)c4)[nH]3)cc2)nc(Sc2ccccn2)n1 [Compound 152] | > 70% | > 70% | > 70% | – | – | –
38 | COCCCNc1cc(Oc2ccc(-c3nnc(Nc4cccc(C(F)(F)F)c4)[nH]3)cc2)nc(SC)n1 [Compound 145] | > 70% | > 70% | < 50% | – | – | –
39 | FC(F)(F)c1cccc(Nc2nnc(-c3ccc(Oc4nccc5ccccc45)cc3)[nH]2)c1 [Compound 149] | > 70% | > 70% | 50 to 70% | – | – | –
40 | COc1ccc2c(Oc3ccc(-c4cnc(Nc5cccc(C(F)(F)F)c5)[nH]4)cc3)ccnc2c1 [Compound 200] | – | – | – | > 70% | > 70% | > 70%
41 | CSc1nc(N)cc(Sc2ccc(-c3nnc(Nc4cccc(C(F)(F)F)c4)[nH]3)cc2)n1 [Compound 119] | > 70% | < 50% | < 50% | – | – | –
42 | COc1cc2ncnc(Oc3ccc(-c4nnc(Nc5cccc(C(F)(F)F)c5)[nH]4)cc3)c2cc1OC [Compound 160] | > 70% | > 70% | 50 to 70% | – | – | –
43 | COc1nc(Oc2ccc(-c3nnc(Nc4cccc(C(F)(F)F)c4)[nH]3)cc2)c2cc[nH]c2n1 [Compound 75] | > 70% | > 70% | > 70% | – | – | –
44 | CCc1cc(Oc2ccc(-c3nnc(Nc4cccc(C(F)(F)F)c4)[nH]3)cc2)nc(N)n1 [Compound 77] | > 70% | 50 to 70% | 50 to 70% | – | – | –
45 | CSc1nc(N)cc(Oc2cccc(-c3nnc(Nc4ccc(F)c(C(F)(F)F)c4)[nH]3)c2)n1 [Compound 106] | > 70% | > 70% | > 70% | – | – | –
46 | FC(F)(F)c1cccc(Nc2nnc(-c3cccc(Oc4ccnc5ccccc45)c3)[nH]2)c1 [Compound 23] | > 70% | > 70% | > 70% | – | – | –
47 | NS(=O)(=O)c1cnccc1Oc1cccc(-c2nnc(Nc3cccc(C(F)(F)F)c3)o2)c1 [Compound 39] | > 70% | > 70% | > 70% | – | – | –
